In PubChem BioAssay AID2060900 (Molecular Pharmacology Branch, DTP, NCI, 2025):

Test system: 521955-158-R2-J5-PDC complex spheroids, viability
Experiment: Anticancer human tumor 521955-158-R2-J5-PDC patient-derived pancreatic carcinoma cell line growth inhibition [RAS]
Conditions: for IC50: curve of first compound; for viability, T/C: stronger effect = lower value
Description: RAS pathway inhibitors in Combinations in Complex Spheroids
A high-throughput screen of multi-cell type tumor spheroids was designed to identify active combinations of RAS pathway inhibitors and targeted small molecules. Complex spheroids include a stromal component modeled by human endothelial cells (HUVEC) and fibroblasts modeled by human mesenchymal stem cells (MSCs). The concentration ranges selected for each drug and investigational agent were based upon clinically achievable concentrations if the clinical Cmax of the agent was known.
Compounds. The drugs and investigational agents: abemaciclib (NSC768073), cobimetinib (NSC768068), divarasib (GDC6063, NSC841802), docetaxel (NSC628503), GDC-1971 (RLY-1971, NSC841576), gemcitabine (NSC613327), inavolisib (NSC800729), ipatasertib (NSC767898), KB-0742 (NSC834161), MRTX-1133 (NSC836407), osimertinib (NSC779217), RMC-4630 (NSC839698), RMC-6236 (NSC851965), RMC-6291 (NSC852671), Ro-3306 (NSC812927), sapanisertib (NSC764658), SN-38 (NSC673596), staurosporine (NSC755774), SY5609 (NSC837396), and tovorafenib (DAY101, NSC766906), were obtained from the National Cancer Institute (NCI) Developmental Therapeutics Program Chemical Repository. The FDA-approved anticancer drug set is available from the NCI Developmental Therapeutics Program. […] The stock solutions were prepared in dimethyl sulfoxide (DMSO, Sigma-Aldrich, St. Louis, MO, cat. D2650) at 800-fold the tested concentration and stored at -70 degrees C prior to their use. All drugs and investigational agents were tested over a range starting from a high concentration at or near the clinical Cmax and decreasing in half-log increments. If the clinical Cmax for an agent had not been determined, the highest concentration tested was 10 microM.
Cell Culture. All cells were maintained in an incubator at 37 degrees C and 5% CO2 with 95% humidity. The PDC lines were cultured according to standard operating procedures established by the NCI PDMR. All PDCs were thawed and cultured in Matrigel-coated flasks prepared with a working solution of 1X Ham's F-12 nutrient mix, without supplementation (Invitrogen, Waltham, MA, cat. 11765054), 100 U/mL penicillin-streptomycin (Invitrogen, cat. 15140122), and 2.5% Matrigel (Corning Inc., Corning, NY, cat. 354248) for the first three passages. The 362531-283-R-J2-PDC and 782815-120-R-J1-PDC lines were cultured in 6C/Colon 1B media, which includes advanced DMEM/F-12 (Thermo Fisher Scientific, cat. 12634028), 10 mM HEPES (Thermo Fisher Scientific, cat. 15630080), 1X GlutaMAX supplement (Thermo Fisher Scientific, cat. 35050061), 0.1 mg/mL primocin (InvivoGen, San Diego, CA, cat. ant-pm-2), 10% defined fetal bovine serum, heat inactivated (HyClone Laboratories Inc., Logan, UT, cat. SH30070.03HI), 50% L-WRN conditioned media (ATCC, cat. CRL-3276), 1.25 mM N-Acetyl-L-cysteine (Sigma-Aldrich, cat. A9165), 10 mM nicotinamide (Sigma-Aldrich, cat. N0636), 1X B-27 supplement (Thermo Fisher Scientific, cat. 17504044), 1X N-2 supplement (Thermo Fisher Scientific, cat. 17502048), 50 ng/mL human EGF (Thermo Fisher Scientific, cat. PHG0311), and 10 microM Y-27632 dihydrochloride (Tocris Bioscience, cat. 1254). The K12877-001-R-J1-PDC line was cultured in 6I media, which includes all 6C/Colon 1B media plus 10 ng/mL human FGF-10 (PeproTech, cat. 100-26), 1 ng/mL human FGF-2 (PeproTech, cat. 100-18B), 1 µM prostaglandin E2 (Tocris Bioscience, cat. 2296), […] hydrocortisone (Sigma-Aldrich, cat. H4001), and […] bovine insulin (Sigma-Aldrich, cat. I6634). The K86415-001-R-J1-PDC line was cultured in 6D media, which includes all 6C/Colon 1B media components minus the L-WRN conditioned media. The 485176-168-R4-J1-PDC was cultured in PANC media, which includes all 6C/Colon 1B media plus 100 ng/mL human FGF-10 (PeproTech, cat. 100-26), 500 nM SB-431542 (Selleckchem, cat. S1067), and 10 nM gastrin (Tocris Bioscience, cat. 3006). […]
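Also: compound exposure lasted seven days before the viability read.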
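For viability, T/C in this document: spheroids also contain HUVEC endothelial cells and mesenchymal stem cells as stroma.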

In the case of `CCN1CCN(Cc2ccc(Nc3ncc(F)c(-c4cc(F)c5nc(C)n(C(C)C)c5c4)n3)nc2)CC1` + C#Cc1c(F)ccc2cc(O)cc(-c3ncc4c(N5CC6CCC(C5)N6)nc(OCC56CCCN5CC(F)C6)nc4c3F)c12, the IC50 (second compound 0.0316 µM) is reported as > 1000 nM, the IC50 (second compound 0.1 µM) is reported as > 1000 nM and the IC50 (second compound 0.316 µM) is reported as > 1000 nM. The IC50 (second compound 1 µM) was 316 nM, the IC50 (second compound 3.16 µM) was < 3.16 nM and the IC50 (second compound 10 µM) was < 3.16 nM. The viability, T/C (second compound 0.0316 µM, first compound 0.00316 µM) was 66.7%, the viability, T/C (second compound 0.0316 µM, first compound 0.01 µM) was 69.4% and the viability, T/C (second compound 0.0316 µM, first compound 0.0316 µM) was 57.5%. For the same molecule, the viability, T/C (second compound 0.0316 µM, first compound 0.1 µM) was 73.8%, the viability, T/C (second compound 0.0316 µM, first compound 0.316 µM) was 71.5% and the viability, T/C (second compound 0.0316 µM, first compound 1 µM) was 72.8%. The viability, T/C (second compound 0.1 µM, first compound 0.00316 µM) was 46%, the viability, T/C (second compound 0.1 µM, first compound 0.01 µM) was 65.2% and the viability, T/C (second compound 0.1 µM, first compound 0.0316 µM) was 59.2%. The viability, T/C (second compound 0.1 µM, first compound 0.1 µM) was 61.2%, the viability, T/C (second compound 0.1 µM, first compound 0.316 µM) was 65.9% and the viability, T/C (second compound 0.1 µM, first compound 1 µM) was 66.6%. It also gave a viability, T/C (second compound 0.316 µM, first compound 0.00316 µM) of 61.2%, a viability, T/C (second compound 0.316 µM, first compound 0.01 µM) of 53.5% and a viability, T/C (second compound 0.316 µM, first compound 0.0316 µM) of 46.9%. For the same molecule, the viability, T/C (second compound 0.316 µM, first compound 0.1 µM) was 52.9%, the viability, T/C (second compound 0.316 µM, first compound 0.316 µM) was 51.1% and the viability, T/C (second compound 0.316 µM, first compound 1 µM) was 67.9%. For the same molecule, the viability, T/C (second compound 1 µM, first compound 0.00316 µM) was 58.5%, the viability, T/C (second compound 1 µM, first compound 0.01 µM) was 56.4% and the viability, T/C (second compound 1 µM, first compound 0.0316 µM) was 58%. It also gave a viability, T/C (second compound 1 µM, first compound 0.1 µM) of 45.5%, a viability, T/C (second compound 1 µM, first compound 0.316 µM) of 49.5% and a viability, T/C (second compound 1 µM, first compound 1 µM) of 56.1%. For the same molecule, the viability, T/C (second compound 3.16 µM, first compound 0.00316 µM) was 50.2%, the viability, T/C (second compound 3.16 µM, first compound 0.01 µM) was 44.8% and the viability, T/C (second compound 3.16 µM, first compound 0.0316 µM) was 47.8%. The viability, T/C (second compound 3.16 µM, first compound 0.1 µM) was 42.6%, the viability, T/C (second compound 3.16 µM, first compound 0.316 µM) was 59.9% and the viability, T/C (second compound 3.16 µM, first compound 1 µM) was 51%. For the same molecule, the viability, T/C (second compound 10 µM, first compound 0.00316 µM) was 39.7%, the viability, T/C (second compound 10 µM, first compound 0.01 µM) was 37.2% and the viability, T/C (second compound 10 µM, first compound 0.0316 µM) was 30.9%. It also gave a viability, T/C (second compound 10 µM, first compound 0.1 µM) of 31.4%, a viability, T/C (second compound 10 µM, first compound 0.316 µM) of 36% and a viability, T/C (second compound 10 µM, first compound 1 µM) of 24.7%.
